Values of other authors in patent US6436991B1, “Composition and method containing products extracted from Commiphora sp. for prevention and treatment of abnormal cell growth and proliferation in inflammation, neoplasia and cardiovascular disease” (Sabinsa Corporation, priority 2000, dated 2002).

Details: literature values; read-out: IC50, DPPH radical scavenging (reported, Chen and Ho 1995)

Compound | IC50 [µM]
O=C(O)c1cc(O)c(O)c(O)c1 [gallic acid] | 10.6
catechin | 18.6
